≈ marks a conversion by molar mass, not a printed value. Where “and” joins values, the source holds several entries; their conditions need not be identical. Equal values may be shown once. Read-outs that look alike come from different tables or passages of the source.
Experiments:
murine CFU-GM = test: Disk diffusion assay, zone of inhibition, murine CFU-GM; assay type: cell-based; conditions: 1 mg/mL
Protocol: (§1) A disk diffusion assay was performed to define the differential cell killing ability of 15-O-(3′-hydroxy-3′-isopropyl-4′-methylpentanoyl)bruceolide. Seven cell types were assayed: L1210 (ATCC CCL-219) (murine leukemia), CCRF-CEM (ATCC CCL-119) (human leukemia), Colon 38 (murine colon adenocarcinoma), HCT116 (ATCC CCL-247) (human colorectal carcinoma), H125 (human lung carcinoma). The murine and human granulocyte/macrophage progenitor cell line (CFU-GM), served as controls.
(§2) For CFU-GM cells, the femoral marrow of BD2F1 mice was flushed with MEM alpha (2 mL per femur). The cells were passed through an 18 gauge needle twice and the monodispersed suspension was counted. A total of 1.5×10^6 cells were plated in 3 mL of 0.3% agar with the addition of 10% L cell conditioned media, which provided colony stimulating factor, in MEM-alpha plus 10% BCS. For human CFU-GM, the cells were obtained from Poietic Technologies, Inc. (Gaithersburg, Md.) and washed twice with PBS before being titered and added to the agar mixture. The same cell number, culture conditions, and conditioning factors used with respect to the murine CFU-GM cells were used with the human cells, except that the cultures were assessed after 10 days of incubation.
(§3) A 15 μl sample of each compound was dropped onto a 6.5 mm disk (Baxter filter disks). The disks were allowed to dry overnight and then placed close to the edge of a petri dish. Depending upon the cell type, the dishes were incubated for 7 to 10 days, and examined by an inverted stereo-microscope (10×) for measurement of the zone of inhibition. The zone of inhibition was measured from the edge of the filter disk to the beginning of normal-sized colony formation. The diameter of the filter disk, 6.5 mm, was arbitrarily taken as a zone of 200 units. Compounds that were selective for killing solid tumors, as compared to leukemia or normal cells (“solid tumor selective”) were defined as those compounds which produced a difference in zones between solid tumor cells and either normal or leukemia cells of at least 250 units. The results of this analysis are set forth in Table 4, which illustrates the relative diameters of the zones of inhibition by various drugs on the growth of the respective cell types at various drug dilutions.

human CFU-GM = assay type: cell-based; conditions: 1 mg/mL
Protocol: as §1, §2, §3

[1] = tested on: H125 (human lung carcinoma); test: Disk diffusion assay, zone of inhibition, H125; assay type: cell-based; conditions: 1 mg/mL
Protocol: as §1
(§4) Colon 38 cells (about 1 gram) were cut into small fragments in 15 mL of Hank's Balanced Salt Solution (HBSS) over a 100-mesh sieve and gently forced through by the scissors with HBSS constantly perfusing the sieve. The resulting material was then drawn into and out of a 5 mL syringe without a needle to further disperse the cell clumps. The cell solution was diluted and plated in 0.3% agarose in DMEM plus 10% heat-inactivated Bovine Calf Serum (BCS). For plating of all of the cell types (except controls), the 60 mm plates were first prepared with a hard agar bottom layer (0.6% agar in RPMI-1640 plus 15% BCS).
(§5) HCT116 and H125 cells were maintained in cell culture, and were removed from culture by a trypsin-collagenase-DNAase cocktail. The plating efficiencies of each cell type was sufficiently high that 30,000 cells in 3 mL produced the desired number of colonies (i.e., over 10,000 per plate) in 60 mm plates. This soft agar top layer (0.3% with the serum and media as above) plus the titrated tumor cells were poured into the plates and allowed to solidify.
as §3

L1210 (murine leukemia) = test: Disk diffusion assay, zone of inhibition, L1210; assay type: cell-based; conditions: 1 mg/mL
Protocol: as §1, §4, §3

[2] = tested on: HCT116 (human colorectal carcinoma); test: Disk diffusion assay, zone of inhibition, HCT116; assay type: cell-based; conditions: 1 mg/mL
Protocol: as §1, §4, §5, §3

[3] = tested on: CCRF-CEM (human leukemia); test: Disk diffusion assay, zone of inhibition, CCRF-CEM; assay type: cell-based; conditions: 1 mg/mL
Protocol: as §1, §4, §3

[4] = tested on: Colon 38 (murine colon adenocarcinoma); test: Disk diffusion assay, zone of inhibition, Colon 38; zone differentials, potency and product; assay type: cell-based; parameters: key to C38ΔL1210 / C38ΔCFU: difference of zone of inhibition values, in zone units; conditions: for zone of inhibition, Colon 38: 1 mg/mL; for Sum: C38ΔL1210 plus C38ΔCFU; for C38ΔL1210 / C38ΔCFU: difference between zone of inhibition values; for C38ΔL1210: Colon38 vs L1210 leukemia; for C38ΔCFU: Colon38 vs normal cell CFU-GM; for Product: potency multiplied by zone differentials
Summary of the method: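 Dissociated Colon 38 cells were plated in soft agar over a hard agar layer; 15 µl of compound dilution dried on a 6.5 mm disk was placed on the plate, and incubation ran 7–10 days. Inhibition zone was measured from disk edge to normal colonies, with the disk diameter = 200 units. Potency = dilution giving 500 units; the product multiplies it by the differentials against L1210 or CFU-GM.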

HCT-116 cells [5] = test: HCT-116 cytotoxicity, viable cell count by trypan blue; assay type: cell-based, human
HCT-116 cells [6] = test: Clonogenic assay, HCT-116; assay type: cell-based, human; conditions: colonies at 7 days
Protocol: A clonogenic assay was performed using HCT-116 cells. Specifically, HCT-116 cells were seeded at 200 to 20,000 cells in 60 mm dishes. […] At either 2 hours or 24 hours following drug administration, the drug-containing media was removed, and fresh media without drug was added. In addition, one group of cells was subjected to continuous drug exposure for the entire incubation period. The dishes were incubated for 7 days (at 37° C. and 5% CO2), media was removed, and the colonies were stained with methylene blue. Colonies containing 50 cells or more were counted. The results were normalized to an untreated control. Plating efficiency for the untreated cells was about 90%. Repeat experiments also were carried out to define the cell survival range between 1 (100%) and 10^−3 (0.1%) survival. A survival rate of 10^−1 was chosen as the minimal level that would be required in vivo to achieve therapeutic efficacy against HCT-116 cells in tumor-bearing mice. The clonogenic dose response to 15-O-(3′-hydroxy-3′-isopropyl-4′-methylpentanoyl)bruceolide is illustrated in FIG. 4. The clonogenic dose response to 15-(3-isopropyl-4-methyl-2-pentenoyl)-bruceolide is illustrated in FIG. 5.

[7] = Maximum tolerated dose in mice; conditions: first stage, one mouse per dose
Protocol: Formulations containing 15-O-(3′-hydroxy-3′-isopropyl-4′-methylpentanoyl)bruceolide, 15-(3-isopropyl-4-methyl-2-pentenoyl)-bruceolide, and, for comparative purposes, bruceantin, or peninsularinone were prepared by solubilizing each compound in up to 100 mg/mL of ethanol. These solutions were diluted 1:1 with a stabilizer (Cremophor/propylene glycol). The solutions were then diluted in saline (1:10 minimum).
The maximum tolerated dose (MTD) was determined by a two-stage experiment. In the first stage, between 1 and 10 mg/mL of the formulation was prepared as described above. Next, 0.25 mL of the formulation was injected intravenously into one 20 gram mouse (0.75 mg/mouse). If the animal died within 30 days of injection, a series of subsequent 2-fold dilutions were administered to individual mice until an MTD was defined. […] The second stage of the study involved increasing the number of mice per dose to four, and retesting four dilutions that bracket the MTD from the individual mouse study. The four dilutions were the MTD, a dosage twice the MTD, a dosage ½ the MTD, and a dosage ¼ the MTD.

[8] = no dilution, 15 μl on disk, 6.5 mm = 200 units

## CC(=O)O[C@H]1C(=O)[C@@]2(C)[C@H]([C@H](OC(=O)c3ccccc3)[C@]3(O)C[C@H](OC(=O)[C@H](O)[C@@H](NC(=O)c4ccccc4)c4ccccc4)C(C)=C1C3(C)C)[C@]1(OC(C)=O)CO[C@@H]1C[C@@H]2O [Taxol, taxol]
Murine CFU-GM; dilution 1/4
  zone of inhibition, murine CFU-GM: 600 units
Murine CFU-GM; dilution 1/16
  zone of inhibition, murine CFU-GM: 550 units
Murine CFU-GM; dilution 1/64
  zone of inhibition, murine CFU-GM: 400 units
Murine CFU-GM; dilution 1/256
  zone of inhibition, murine CFU-GM: 150 units
Murine CFU-GM; [8]
  zone of inhibition, murine CFU-GM: 650 units
Human CFU-GM; dilution 1/4
  zone of inhibition, human CFU-GM: >1000 units
Human CFU-GM; dilution 1/16
  zone of inhibition, human CFU-GM: 800 units
Human CFU-GM; dilution 1/64
  zone of inhibition, human CFU-GM: 750 units
Human CFU-GM; dilution 1/256
  zone of inhibition, human CFU-GM: 550 units
Human CFU-GM; [8]
  zone of inhibition, human CFU-GM: >1000 units
[1]; dilution 1/4
  zone of inhibition, H-125 M: 850 units
[1]; dilution 1/16
  zone of inhibition, H-125 M: 750 units
[1]; dilution 1/64
  zone of inhibition, H-125 M: 650 units
[1]; dilution 1/256
  zone of inhibition, H-125 M: 500 units
[1]; [8]
  zone of inhibition, H-125 M: >1000 units
L1210 (murine leukemia); dilution 1/4
  zone of inhibition, L1210: 550 units
L1210 (murine leukemia); dilution 1/16
  zone of inhibition, L1210: 500 units
L1210 (murine leukemia); dilution 1/64
  zone of inhibition, L1210: 350 units
L1210 (murine leukemia); dilution 1/256
  zone of inhibition, L1210: 50 units
L1210 (murine leukemia); [8]
  zone of inhibition, L1210: 650 units
[2]; dilution 1/4
  zone of inhibition, H-116: 750 units
[2]; dilution 1/16
  zone of inhibition, H-116: 650 units
[2]; dilution 1/64
  zone of inhibition, H-116: 550 units
[2]; dilution 1/256
  zone of inhibition, H-116: 400 units
[2]; [8]
  zone of inhibition, H-116: 850 units
[3]; dilution 1/4
  zone of inhibition, CEM: >1000 units
[3]; dilution 1/16
  zone of inhibition, CEM: 900 units
[3]; dilution 1/64
  zone of inhibition, CEM: 750 units
[3]; dilution 1/256
  zone of inhibition, CEM: 550 units
[3]; [8]
  zone of inhibition, CEM: >1000 units
[4]; dilution 1/4
  zone of inhibition, Colon 38: 900 units
[4]; dilution 1/16
  zone of inhibition, Colon 38: 750 units
[4]; dilution 1/64
  zone of inhibition, Colon 38: 600 units
[4]; dilution 1/256
  zone of inhibition, Colon 38: 450 units
[4]; [8]
  zone of inhibition, Colon 38: >1000 units
[4]
  Sum: 700
  C38ΔL1210: 400
  C38ΔCFU: 300
  Product: 3500

## COC(=O)[C@@]12OC[C@]34[C@H]([C@@H](O)[C@@H]1O)[C@@]1(C)CC(=O)C(O)=C(C)[C@@H]1C[C@H]3OC(=O)[C@H](OC(=O)/C=C(\C)C(C)C)[C@@H]24 [Bruceantin, bruceantin]
Murine CFU-GM; dilution 1/10
  zone of inhibition, murine CFU-GM: 550 units
Murine CFU-GM; dilution 1/100
  zone of inhibition, murine CFU-GM: 150 units and 200 units
Murine CFU-GM; dilution 1/1000
  zone of inhibition, murine CFU-GM: 0 units
Human CFU-GM; dilution 1/10
  zone of inhibition, human CFU-GM: >1000 units
Human CFU-GM; dilution 1/100
  zone of inhibition, human CFU-GM: 650 units
[1]; dilution 1/10
  zone of inhibition, H-125 M: >1000 units
[1]; dilution 1/100
  zone of inhibition, H-125 M: 600 units
[1]; dilution 1/1000
  zone of inhibition, H-125 M: 100 units
[1]; [8]
  zone of inhibition, H-125 M: >1000 units
HCT-116 cells [5]; HCT-116
  IC90/IC50: 6,700
HCT-116 cells [5]; Homo sapiens, 72 h, HCT-116, 3 days with compound, viable cells, by interpolation, read-out: IC50
  IC50: 0.0015 µg/mL (≈ 0.00273 µM)
HCT-116 cells [5]; Homo sapiens, 72 h, HCT-116, 3 days with compound, viable cells, by interpolation, read-out: IC90
  IC90: 10 µg/mL (≈ 18.2 µM)
HCT-116 cells [6]; HCT-116, 2 Hour Exposure
  Concentration Required for 10^−1 Survival Fraction: >10 μg/mL
HCT-116 cells [6]; HCT-116, 24 Hour Exposure
  Concentration Required for 10^−1 Survival Fraction: >10 μg/mL
HCT-116 cells [6]; HCT-116, Continuous Exposure
  Concentration Required for 10^−1 Survival Fraction: 2 × 10^−3 μg/mL
L1210 (murine leukemia); dilution 1/10
  zone of inhibition, L1210: 1000 units
L1210 (murine leukemia); [8]
  zone of inhibition, L1210: >1000 units
[7]; intravenous
  maximum tolerated dose, Dose - 1 Mouse: 0.1 mg/mouse
[7]; mouse, in vivo, iv, maximum tolerated dose, Dose - 1 Mouse
  MTD: 5.4 mg/kg
[2]; dilution 1/10
  zone of inhibition, H-116: 1000 units
[2]; dilution 1/100
  zone of inhibition, H-116: 400 units
[2]; dilution 1/1000
  zone of inhibition, H-116: 0 units
[2]; [8]
  zone of inhibition, H-116: >1000 units
[3]; dilution 1/100
  zone of inhibition, CEM: 450 units
[4]; dilution 1/10
  zone of inhibition, Colon 38: >1000 units
[4]; dilution 1/100
  zone of inhibition, Colon 38: 600 units and 1000 units
[4]; dilution 1/1000
  zone of inhibition, Colon 38: 600 units and 450 units
[4]; [8]
  zone of inhibition, Colon 38: >1000 units
[4]
  Sum: 1050
  C38ΔL1210: 500
  C38ΔCFU: 550
  Product: 6300
